# Measurements as given in patent US9826761B2, “Compositions and methods for mitigating dietary sulfur in animals” (SarTec Corporation, priority 2008, dated 2017).
# How the values were obtained:
# [1] = Titration of approx. 200 mM sulfide in 24 hour old rumen fluid with 1 M MnCl2, BaCl2 or CaCl2, silver/sulfide electrode; set-up: species or system Holstein cows
# Experimental: 24 hour old undiluted rumen fluid from rumen fistulated Holstein cows was obtained. 4 ml of Na2S in water (approximately 1 M) was added to 16 ml of the rumen fluid. The final concentration of sulfide ion in the rumen fluid was approximately 200 mM. […] The progress of the reaction was followed using the same silver/sulfide electrode set-up described above (Orion, Ion Plus Silver/Sulfide 9616BNWP).
# [2] = Precipitating activity: rumen fluid containing manganese compound titrated with 1.0M Na2S, silver/sulfide electrode; set-up: species or system Holstein cows; conditions: 100 mM MnO2(IV) in rumen fluid
# Experimental: Next, 0.28 g of MnO(II) was placed in a 100 ml beaker and 20 ml of rumen fluid was added. Then 0.17 g of MnO2(IV) was placed in 100 ml beaker and 20 ml of rumen fluid was added. Each of these compositions, in addition to a rumen fluid control, was then titrated with a 1.0M solution of Na2S. The progress of the reaction was followed using the same silver/sulfide electrode set-up described above (Orion, Ion Plus Silver/Sulfide 9616BNWP).
structure (smiles),measurement,setting,value
[Ba+2].[Cl-].[Cl-] [BaCl2],mVolts,"[1]; Volume 0.0 of 1.0M BaCl2, ~200 mM sulfide",942.6 mVolts
same,mVolts,"[1]; Volume 0.3 of 1.0M BaCl2, ~200 mM sulfide",943.7 mVolts
same,mVolts,"[1]; Volume 0.4 of 1.0M BaCl2, ~200 mM sulfide",943.3 mVolts
same,mVolts,"[1]; Volume 0.6 of 1.0M BaCl2, ~200 mM sulfide",942.7 mVolts
same,mVolts,"[1]; Volume 0.8 of 1.0M BaCl2, ~200 mM sulfide",941.3 mVolts
same,mVolts,"[1]; Volume 1.0 of 1.0M BaCl2, ~200 mM sulfide",927.0 mVolts
same,mVolts,"[1]; Volume 1.2 of 1.0M BaCl2, ~200 mM sulfide",925.6 mVolts
same,mVolts,"[1]; Volume 1.4 of 1.0M BaCl2, ~200 mM sulfide",923.3 mVolts
same,mVolts,"[1]; Volume 1.6 of 1.0M BaCl2, ~200 mM sulfide",922.5 mVolts
same,mVolts,"[1]; Volume 1.8 of 1.0M BaCl2, ~200 mM sulfide",921.5 mVolts
same,mVolts,"[1]; Volume 2.0 of 1.0M BaCl2, ~200 mM sulfide",920.9 mVolts
same,mVolts,"[1]; Volume 2.2 of 1.0M BaCl2, ~200 mM sulfide",920.5 mVolts
same,mVolts,"[1]; Volume 2.4 of 1.0M BaCl2, ~200 mM sulfide",920.0 mVolts
same,mVolts,"[1]; Volume 2.6 of 1.0M BaCl2, ~200 mM sulfide",919.7 mVolts
same,mVolts,"[1]; Volume 2.8 of 1.0M BaCl2, ~200 mM sulfide",918.8 mVolts
same,mVolts,"[1]; Volume 3.0 of 1.0M BaCl2, ~200 mM sulfide",918.1 mVolts
same,mVolts,"[1]; Volume 3.2 of 1.0M BaCl2, ~200 mM sulfide",917.7 mVolts
same,mVolts,"[1]; Volume 3.4 of 1.0M BaCl2, ~200 mM sulfide",917.2 mVolts
same,mVolts,"[1]; Volume 3.6 of 1.0M BaCl2, ~200 mM sulfide",916.7 mVolts
same,mVolts,"[1]; Volume 3.8 of 1.0M BaCl2, ~200 mM sulfide",916.0 mVolts
same,mVolts,"[1]; Volume 4.0 of 1.0M BaCl2, ~200 mM sulfide",915.6 mVolts
same,mVolts,"[1]; Volume 4.2 of 1.0M BaCl2, ~200 mM sulfide",915.0 mVolts
same,mVolts,"[1]; Volume 4.4 of 1.0M BaCl2, ~200 mM sulfide",914.8 mVolts
same,mVolts,"[1]; Volume 4.6 of 1.0M BaCl2, ~200 mM sulfide",914.4 mVolts
same,mVolts,"[1]; Volume 4.8 of 1.0M BaCl2, ~200 mM sulfide",913.9 mVolts
same,mVolts,"[1]; Volume 5.0 of 1.0M BaCl2, ~200 mM sulfide",913.6 mVolts
same,mVolts,"[1]; Volume 5.2 of 1.0M BaCl2, ~200 mM sulfide",913.0 mVolts
same,mVolts,"[1]; Volume 5.4 of 1.0M BaCl2, ~200 mM sulfide",913.0 mVolts
same,mVolts,"[1]; Volume 5.6 of 1.0M BaCl2, ~200 mM sulfide",912.7 mVolts
same,mVolts,"[1]; Volume 5.8 of 1.0M BaCl2, ~200 mM sulfide",912.0 mVolts
same,mVolts,"[1]; Volume 6.0 of 1.0M BaCl2, ~200 mM sulfide",911.7 mVolts
same,mVolts,"[1]; Volume 6.5 of 1.0M BaCl2, ~200 mM sulfide",910.7 mVolts
same,mVolts,"[1]; Volume 7.0 of 1.0M BaCl2, ~200 mM sulfide",910.8 mVolts
same,mVolts,"[1]; Volume 7.5 of 1.0M BaCl2, ~200 mM sulfide",909.5 mVolts
same,mVolts,"[1]; Volume 8.0 of 1.0M BaCl2, ~200 mM sulfide",908.3 mVolts
same,mVolts,"[1]; Volume 8.5 of 1.0M BaCl2, ~200 mM sulfide",907.4 mVolts
same,mVolts,"[1]; Volume 9.0 of 1.0M BaCl2, ~200 mM sulfide",906.8 mVolts
same,mVolts,"[1]; Volume 9.5 of 1.0M BaCl2, ~200 mM sulfide",905.7 mVolts
same,mVolts,"[1]; Volume 10.0 of 1.0M BaCl2, ~200 mM sulfide",905.0 mVolts
[Ca+2].[Cl-].[Cl-] [CaCl2],mVolts,"[1]; Volume 0.0 of 1.0M CaCl2, ~200 mM sulfide",945.1 mVolts
same,mVolts,"[1]; Volume 0.1 of 1.0M CaCl2, ~200 mM sulfide",939.8 mVolts
same,mVolts,"[1]; Volume 0.3 of 1.0M CaCl2, ~200 mM sulfide",944.8 mVolts
same,mVolts,"[1]; Volume 0.5 of 1.0M CaCl2, ~200 mM sulfide",931.6 mVolts
same,mVolts,"[1]; Volume 0.7 of 1.0M CaCl2, ~200 mM sulfide",931.3 mVolts
same,mVolts,"[1]; Volume 0.9 of 1.0M CaCl2, ~200 mM sulfide",931.2 mVolts
same,mVolts,"[1]; Volume 1.1 of 1.0M CaCl2, ~200 mM sulfide",931.1 mVolts
same,mVolts,"[1]; Volume 1.4 of 1.0M CaCl2, ~200 mM sulfide",930.7 mVolts
same,mVolts,"[1]; Volume 1.6 of 1.0M CaCl2, ~200 mM sulfide",927.1 mVolts
same,mVolts,"[1]; Volume 1.8 of 1.0M CaCl2, ~200 mM sulfide",925.7 mVolts
same,mVolts,"[1]; Volume 2.0 of 1.0M CaCl2, ~200 mM sulfide",924.8 mVolts
same,mVolts,"[1]; Volume 2.2 of 1.0M CaCl2, ~200 mM sulfide",923.8 mVolts
same,mVolts,"[1]; Volume 2.4 of 1.0M CaCl2, ~200 mM sulfide",923.0 mVolts
same,mVolts,"[1]; Volume 2.6 of 1.0M CaCl2, ~200 mM sulfide",921.0 mVolts
same,mVolts,"[1]; Volume 2.8 of 1.0M CaCl2, ~200 mM sulfide",920.2 mVolts
same,mVolts,"[1]; Volume 3.0 of 1.0M CaCl2, ~200 mM sulfide",917.5 mVolts
same,mVolts,"[1]; Volume 3.3 of 1.0M CaCl2, ~200 mM sulfide",916.8 mVolts
same,mVolts,"[1]; Volume 3.4 of 1.0M CaCl2, ~200 mM sulfide",915.6 mVolts
same,mVolts,"[1]; Volume 3.6 of 1.0M CaCl2, ~200 mM sulfide",914.9 mVolts
same,mVolts,"[1]; Volume 3.8 of 1.0M CaCl2, ~200 mM sulfide",914.3 mVolts
same,mVolts,"[1]; Volume 4.0 of 1.0M CaCl2, ~200 mM sulfide",913.7 mVolts
same,mVolts,"[1]; Volume 4.2 of 1.0M CaCl2, ~200 mM sulfide",913.1 mVolts
same,mVolts,"[1]; Volume 4.4 of 1.0M CaCl2, ~200 mM sulfide",912.6 mVolts
same,mVolts,"[1]; Volume 4.6 of 1.0M CaCl2, ~200 mM sulfide",912.1 mVolts
same,mVolts,"[1]; Volume 4.8 of 1.0M CaCl2, ~200 mM sulfide",911.0 mVolts
same,mVolts,"[1]; Volume 5.0 of 1.0M CaCl2, ~200 mM sulfide",910.1 mVolts
same,mVolts,"[1]; Volume 5.2 of 1.0M CaCl2, ~200 mM sulfide",909.9 mVolts
same,mVolts,"[1]; Volume 5.4 of 1.0M CaCl2, ~200 mM sulfide",909.5 mVolts
same,mVolts,"[1]; Volume 5.6 of 1.0M CaCl2, ~200 mM sulfide",908.9 mVolts
same,mVolts,"[1]; Volume 5.8 of 1.0M CaCl2, ~200 mM sulfide",908.5 mVolts
same,mVolts,"[1]; Volume 6.0 of 1.0M CaCl2, ~200 mM sulfide",908.0 mVolts
same,mVolts,"[1]; Volume 6.5 of 1.0M CaCl2, ~200 mM sulfide",906.7 mVolts
same,mVolts,"[1]; Volume 7.0 of 1.0M CaCl2, ~200 mM sulfide",905.5 mVolts
same,mVolts,"[1]; Volume 7.5 of 1.0M CaCl2, ~200 mM sulfide",904.5 mVolts
same,mVolts,"[1]; Volume 8.0 of 1.0M CaCl2, ~200 mM sulfide",903.3 mVolts
same,mVolts,"[1]; Volume 8.5 of 1.0M CaCl2, ~200 mM sulfide",902.3 mVolts
same,mVolts,"[1]; Volume 9.0 of 1.0M CaCl2, ~200 mM sulfide",901.3 mVolts
same,mVolts,"[1]; Volume 9.5 of 1.0M CaCl2, ~200 mM sulfide",900.3 mVolts
same,mVolts,"[1]; Volume 10.0 of 1.0M CaCl2, ~200 mM sulfide",899.6 mVolts
[O]=[Mn]=[O] [MnO2(IV)],mVolts,[2]; Vol 1M Na2S 0.0,597.2 mVolts
same,mVolts,[2]; Vol 1M Na2S 0.1,672.5 mVolts
same,mVolts,[2]; Vol 1M Na2S 0.2,679.4 mVolts
same,mVolts,[2]; Vol 1M Na2S 0.3,688.1 mVolts
same,mVolts,[2]; Vol 1M Na2S 0.4,698.0 mVolts
same,mVolts,[2]; Vol 1M Na2S 0.5,699.4 mVolts
same,mVolts,[2]; Vol 1M Na2S 0.7,709.7 mVolts
same,mVolts,[2]; Vol 1M Na2S 0.8,720.0 mVolts
same,mVolts,[2]; Vol 1M Na2S 0.9,728.2 mVolts
same,mVolts,[2]; Vol 1M Na2S 1.0,738.1 mVolts
same,mVolts,[2]; Vol 1M Na2S 1.1,732.5 mVolts
same,mVolts,[2]; Vol 1M Na2S 1.2,737.4 mVolts
same,mVolts,[2]; Vol 1M Na2S 1.3,740.0 mVolts
same,mVolts,[2]; Vol 1M Na2S 1.4,749.2 mVolts
same,mVolts,[2]; Vol 1M Na2S 1.5,742.7 mVolts
same,mVolts,[2]; Vol 1M Na2S 1.8,762.4 mVolts
same,mVolts,[2]; Vol 1M Na2S 2.1,776.0 mVolts
same,mVolts,[2]; Vol 1M Na2S 2.4,784.3 mVolts
same,mVolts,[2]; Vol 1M Na2S 2.6,791.9 mVolts
same,mVolts,[2]; Vol 1M Na2S 2.8,796.6 mVolts
same,mVolts,[2]; Vol 1M Na2S 3.0,803.1 mVolts
same,mVolts,[2]; Vol 1M Na2S 3.2,806.0 mVolts
same,mVolts,[2]; Vol 1M Na2S 3.5,817.4 mVolts
same,mVolts,[2]; Vol 1M Na2S 3.7,817.0 mVolts
same,mVolts,[2]; Vol 1M Na2S 3.9,816.5 mVolts
same,mVolts,[2]; Vol 1M Na2S 4.1,817.2 mVolts
